Where two headings read alike, the source gives them in different places.

The conditions of series [1]: single oral 25 mg exemestane; for concentration at 24 h: female, human, urine, po, 25 mg, C24 hr (SD), 24-hr urine concentration.
For series [2] the following is noted: for Plasma concentrations at 24 and 72 hours after exemestane administration: lower limit of quantitation 0.2 (exemestane) and 0.1 ng/ml (17-hydroexemestane); for AUC(0-t): AUC0-8, plasma; for AUC(0-inf): AUC0-∞ (SD); for Cmax: Cmax (SD); for Tmax: Tmax (SD).
For series [3] the following is noted: postmenopausal volunteers, single oral 25 mg dose; cited from earlier work.
The next series deals with UGT2B17. The following applies: human liver microsomes UGT2B17(*2/*2) versus UGT2B17(*1/*1), P=0.023; cited from earlier work. On the technique in general: Liver microsomes are vesicles of endoplasmic reticulum, rich in cytochrome P450 enzymes.
The mark [4] stands for this setting: with beta-glucuronidase, UGT2B17 *1/*1 (n = 8).
The mark [5] stands for this setting: with beta-glucuronidase, UGT2B17 *2/*2 (n = 6).
Setting [6] is: without beta-glucuronidase, UGT2B17 *1/*1 (n = 8).
[7] abbreviates: without beta-glucuronidase, UGT2B17 *2/*2 (n = 6).
[8] abbreviates: plasma, range over subjects, single oral 25 mg exemestane.
[9] abbreviates: female, human, plasma, po, 25 mg, with beta-glucuronidase (total), UGT2B17 *1/*1 (n = 8), single oral 25 mg exemestane.
Where [10] appears, read: female, human, plasma, po, 25 mg, with beta-glucuronidase (total), UGT2B17 *2/*2 (n = 6), single oral 25 mg exemestane.
Where [11] appears, read: female, human, plasma, po, 25 mg, without beta-glucuronidase (free), UGT2B17 *1/*1 (n = 8), single oral 25 mg exemestane.
Setting [12] is: female, human, plasma, po, 25 mg, without beta-glucuronidase (free), UGT2B17 *2/*2 (n = 6), single oral 25 mg exemestane.

For `C=C1C[C@H]2[C@@H]3CC[C@H](O)[C@@]3(C)CC[C@@H]2[C@@]2(C)C=CC(=O)C=C12` [17-hydroexemestane], the “C24 hr (SD), 24-hr urine concentration” value in series [1] (setting [4]) was 2.3 (1.2) ng/ml; in series [1] (with beta-glucuronidase, UGT2B17 *1/*1 (n = 8), listed as 17-HEXE), 2.3 ± 1.2 ng/mL; in series [1] (setting [5]), 0.5 (0.3) ng/ml; in series [1] (with beta-glucuronidase, UGT2B17 *2/*2 (n = 6), listed as 17-HEXE) it was 0.5 ± 0.3 ng/mL; in series [1] (setting [6]), 0.4 (0.2) ng/ml; in series [1] (setting [7]), 0.4 (0.3) ng/ml. In addition, the “difference in the AUC of conjugated 17-hydroexemestane between high and poor expressers” value in series [2] (UGT2B17 *1/*1 vs *2/*2, plasma) is listed as roughly 8 fold. Also, the “AUC, range in our pharmacokinetic study” value in series [2] (setting [8]) was in the range of 0.7 to 26.9 ng·h/mL. In addition, the “Cmax, range in our pharmacokinetic study” value in series [2] (setting [8]) lay within 0.1 to 2.7 ng/mL. The same compound had an AUC0-8 in series [2] (plasma, with beta-glucuronidase (+BG), UGT2B17*1/*1 carriers, single oral 25 mg exemestane) of 7.3 ± 2.6 ng·h/mL. Further, in series [2] (single oral 25 mg exemestane), the “Plasma concentrations at 24 and 72 hours after exemestane administration” value is recorded as “below the lowest limit of quantification”. For the same compound, the “maximal plasma concentrations (Cmax), range in previous studies” value in series [3] is 0.22 to 2.44 ng/mL. Moreover, the “plasma concentrations over time (AUC), range in previous studies” value in series [3] is 2.46 to 20.89 ng·h/mL. Moreover, the “lower intrinsic clearance (Vmax/Km)” value with UGT2B17 is reported as 36 fold.

As usually defined, the AUC is concentration integrated over time. A high value points to more exposure. As for `C=C1C[C@@H]2[C@H](CC[C@]3(C)C(=O)CC[C@@H]23)[C@@]2(C)C=CC(=O)C=C12` [Exemestane], the concentration at 24 h in series [1] (setting [4]) came to 1.7 ± 1 ng/mL; in series [1] (setting [5]), 2.1 ± 1.6 ng/mL; in series [1] (setting [6]), 1.9 ng/mL; in series [1] (setting [7]) it was 2.5 ng/mL. Further, the “C24 hr (SD), 24-hr urine concentration” value is recorded as 1.7 (1.0) ng/ml in series [1] (setting [4]) and 2.1 (1.6) ng/ml in series [1] (setting [5]). The compound also displayed an area under the curve (AUC) in series [2] (female, human, plasma, po, 25 mg) of 9.2 to 40.6 ng·h/mL. The AUC(0-t) in series [2] (female, human, plasma, po, 25 mg, with beta-glucuronidase (+BG), UGT2B17*1/*1 carriers, single oral 25 mg exemestane) worked out at 16.2 ± 3.5 ng·h/mL; in series [2] (female, human, plasma, po, 25 mg, with beta-glucuronidase (+BG), UGT2B17*2/*2 carriers, single oral 25 mg exemestane) it was 15.5 ± 4.2 ng·h/mL. Besides, the AUC(0-inf) in series [2] (setting [9]) was found to be 19.8 ng·h/mL; in series [2] (setting [10]), 19 ng·h/mL; in series [2] (setting [11]), 22.7 ng·h/mL; in series [2] (setting [12]) it was 19.7 ng·h/mL. In addition, the Cmax amounted to 4.4 ng/mL in series [2] (setting [9]), 5.2 ng/mL in series [2] (setting [10]), 5.6 ng/mL in series [2] (setting [11]) and 5.3 ng/mL in series [2] (setting [12]). Further, the Tmax worked out at 3.1 h in series [2] (setting [9]), 1.9 h in series [2] (setting [10]), 3.1 h in series [2] (setting [11]) and 1.7 h in series [2] (setting [12]). In addition, the “Plasma concentrations at 24 and 72 hours after exemestane administration” value in series [2] (single oral 25 mg exemestane) is reported as “below the lowest limit of quantification”. Also, in series [3], the “maximal plasma concentrations (Cmax), range in previous studies” value is 3.0 to 16.1 ng/mL. The “plasma concentrations over time (AUC), range in previous studies” value in series [3] was 25.6 to 98.1 ng·h/mL.
